Reference: ChEMBL document CHEMBL1139767, “Dragon method for finding novel tyrosinase inhibitors: Biosilico identification and experimental in vitro assays” (Eur J Med Chem, 2007)
pIC50: −log10 of the molar value.

Molecular target: T1, Tyrosinase (Agaricus bisporus, UniProt O42713)
T1 sequence (O42713 whole entry): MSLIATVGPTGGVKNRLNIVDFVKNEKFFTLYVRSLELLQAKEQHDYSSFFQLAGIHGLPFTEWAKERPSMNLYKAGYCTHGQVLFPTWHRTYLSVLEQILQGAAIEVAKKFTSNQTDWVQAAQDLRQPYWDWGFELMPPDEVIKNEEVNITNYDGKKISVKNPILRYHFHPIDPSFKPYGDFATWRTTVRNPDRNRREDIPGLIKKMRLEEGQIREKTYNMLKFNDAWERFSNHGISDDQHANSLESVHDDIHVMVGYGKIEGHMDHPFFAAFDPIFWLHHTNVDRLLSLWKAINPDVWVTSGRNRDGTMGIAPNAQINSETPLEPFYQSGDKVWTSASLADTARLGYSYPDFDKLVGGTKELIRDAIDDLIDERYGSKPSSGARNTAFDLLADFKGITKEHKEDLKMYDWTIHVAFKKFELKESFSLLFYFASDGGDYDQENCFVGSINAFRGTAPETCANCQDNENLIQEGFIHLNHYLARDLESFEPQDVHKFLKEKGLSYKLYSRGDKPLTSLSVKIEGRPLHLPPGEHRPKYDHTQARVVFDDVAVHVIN
Description: Inhibition of mashroom tyrosinase

Structure (SMILES)	pIC50
CC(=O)N1CCC(N2CCCCC2)CC1	4.52
Cc1ccc(CN2CCC(N3CCCCC3)CC2)cc1	5.76
O=[N+]([O-])c1ccc(S(=O)(=O)N2CCC(N3CCCCC3)CC2)cc1	3.96
c1ccc(OCCCN2CCC(N3CCCCC3)CC2)cc1	4.71
C1CCN(C2CCNCC2)CC1 [[1,4']Bipiperidinyl]	3.96
